# PMC12871931, “The importin‐alpha superfamily engages in ethylene signaling by shuttling [sequence] INSENSITIVE 2 from the endoplasmic reticulum to the nucleus” (The Febs Journal, 2025)
# Tested on: EIN2C^479–1294ΔNLS
# Test: In planta FLIM‐FRET, EIN2C^479–1294ΔNLS‐CER donor, IMPα3‐YFP acceptor
# Type: cell-based, Arabidopsis thaliana
# Details: co‐expression of IMPα3‐YFP acceptor, negative control, t‐test
# Source text: To further investigate the interaction between members of the IMPα superfamily and EIN2 in planta, we used in vivo fluorescence lifetime microscopy and Förster's resonance energy transfer (FLIM‐FRET). Accordingly, the C‐terminal part of EIN2 (EIN2C^479–1294) was fused to the fluorescent protein Cerulean (CER), serving as a donor, and the IMPα isoforms (IMPα1‐7) were fused to YELLOW FL[…] (YFP), serving as acceptors.
# FRET efficiencies ranged between 2.8–4.6%. […] Given that nuclear import of the EIN2C^479–1294ΔNLS variant is abolished, we then tested whether this is due to an impaired interaction with IMPα proteins. […]
# A modified version of a previously described procedure was used for the transient transformation of N. benthamiana. […] For co‐infiltration, bacteria solutions were mixed in equal quantities, and Agrobacterium strain GV3101:p19 expressing the p19 silencing inhibitor was added to each mix. […]
# Fluorescence lifetime imaging was performed using a protocol described previously. Fluorescence lifetime was measured at a Zeiss LSM 780 confocal microscope (40× water immersion objective, Zeiss C‐PlanApo, NA 1.2). […] Photons were detected in both donor and acceptor channels simultaneously with Tau‐SPADs (PicoQuant, Berlin, Germany). […] Fluorescence lifetime images were acquired in the cytosol, ER, or nucleus in donor‐only samples and samples with IMPα1‐4 and IMPα7. […]
substance,measurement,value
"IMPα3‐YFP: A. thaliana IMPα3 fused to YFP, FRET acceptor",fluorescence lifetime of EIN2^479–1294ΔNLS‐CER,did not result in a reduction of the fluorescence lifetime
